Entries after “also recorded” stand apart in the source; their conditions may differ.
Experiments:
[1] = system: FAF1 protein secretion in SH-SY5Y cells overexpressing FAF1; experiment: Secretion of FAF1 protein into culture medium after Brefeldin A treatment (ER-Golgi pathway), Western blotting; format: cell-based, human; conditions: 10 μM, 24 hours, serum-free DMEM, SH-SY5Y cells transfected with 3x Flag tag-FAF1 vector, FIG. 2b
Method: (§1) Particularly, SH-SY5Y cells were aliquoted into 60 mm culture dishes at the density of 5×10^5 cells/dish, and subcultured in DMEM (Dulbecco/s Modified Eagle's Medium) supplemented with antibiotics and 10% FBS (fetal bovine serum) under the conditions of 37° C. and 5% CO2 for 24 hours. The cultured SH-SY5Y cells were transfected with 2 μg of 3x Flag tag-FAF1 expression vector to overexpress FAF1 protein, cultured for 24 hours, and then washed with PPS buffer. Thereafter, the medium was replaced with serum-free DMEM (Dulbecco/s Modified Eagle's Medium), and the cells were treated with 10 μM Brefeldin A (BFA), a compound that inhibits protein secretion through the ER-Golgi pathway, and further cultured in an incubator for 24 hours. The medium was transferred to a 15 ml tube and centrifuged at 1500 rpm for 2 minutes to obtain a supernatant. The obtained supernatant was placed in Amicon Ultra-4 Centrifugal Filter, and centrifuged again at 4000×g, 4° C. for 15 minutes. The protein filtered by the filter was analyzed by Western blotting.

[2] = system: FAF1 protein secretion in SH-SY5Y cells overexpressing FAF1; experiment: Secretion of FAF1 protein into culture medium after treatment with compounds that increase or decrease exosome secretion, Western blotting; format: cell-based, human; conditions: 10 μM, 24 hours, serum-free DMEM, SH-SY5Y cells transfected with 3x Flag tag-FAF1 vector, FIG. 3
Method: as §1, with “PBS” for “PPS”, “Monensin” for “Brefeldin A (BFA), a”, “to increase exosome” for “that inhibits protein”, “and 10 μM GW4869 compound to decrease exosome secretion,” for “through the ER-Golgi pathway,”, “cultured” for “cultured in an incubator”

Row | Structure (SMILES) | expression level of FAF1 protein (secreted into culture medium) versus group not treated [1] | secretion amount of FAF1 compared to control group [2]
1 | C[C@H]1CCC/C=C/[C@@H]2C[C@H](O)C[C@H]2[C@H](O)/C=C/C(=O)O1 [Brefeldin A] | constant; also recorded: no difference | 
2 | CC[C@@]1([C@@H]2O[C@@H]([C@H]3O[C@@](O)(CO)[C@H](C)C[C@@H]3C)C[C@@H]2C)CC[C@H]([C@]2(C)CC[C@]3(C[C@H](O)[C@@H](C)[C@@H]([C@@H](C)[C@@H](OC)[C@H](C)C(=O)O)O3)O2)O1 [Monensin] |  | significantly increased
3 | O=C(/C=C/c1ccc(/C=C/C(=O)Nc2ccc(C3=NCCN3)cc2)cc1)Nc1ccc(C2=NCCN2)cc1 [GW4869] |  | decreased

From US20220214361A1, “Method for Screening Candidate Drug for Treating Degenerative Brain Diseases” (THE INDUSTRY & ACADEMIC COOPERATION IN CHUNGNAM NATIONAL …, priority 2019, published 2022)
